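Growth conditions: 96-well plates. Treatment: test compound, 48 hours, 5 concentrations. Analysis: linear interpolation between bracketing concentrations; unreached endpoints set to highest concentration. At the GI50, growth is halved. TGI marks complete inhibition of growth.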
Key:
Assay in all cases: DTP human tumour cell line panel, 48 h
HCT-15 colon = tested on: HCT-15 colon
SF-539 CNS = tested on: SF-539 CNS
HCT-116 colon = tested on: HCT-116 colon
CAKI-1 renal = tested on: CAKI-1 renal
SK-MEL-5 melanoma = tested on: SK-MEL-5 melanoma
M14 melanoma = tested on: M14 melanoma
HOP-62 NSCLC = tested on: HOP-62 NSCLC
NCI-H23 lung = tested on: NCI-H23 lung
IGROV1 ovarian = tested on: IGROV1 ovarian
OVCAR-3 ovarian = tested on: OVCAR-3 ovarian

SMILES	TGI (HCT-15 colon)	TGI (SF-539 CNS)	TGI (HCT-116 colon)	TGI (CAKI-1 renal)	TGI (SK-MEL-5 melanoma)	TGI (M14 melanoma)	TGI (HOP-62 NSCLC)	TGI (NCI-H23 lung)	TGI (IGROV1 ovarian)	TGI (OVCAR-3 ovarian)	GI50 (HCT-15 colon)	GI50 (SF-539 CNS)	GI50 (HCT-116 colon)	GI50 (CAKI-1 renal)	GI50 (SK-MEL-5 melanoma)	GI50 (M14 melanoma)	GI50 (HOP-62 NSCLC)	GI50 (NCI-H23 lung)	GI50 (IGROV1 ovarian)	GI50 (OVCAR-3 ovarian)
O=C(/C=N/O)Nc1cc(Cl)c(Cl)cc1Cl	> 100 µM	> 100 µM	90.1 µM	79.8 µM	33 µM	> 100 µM	> 100 µM	86.6 µM	> 100 µM	79.5 µM										
CN1CCN(c2ccc(Nc3nc(N)c(C(=O)c4ccc5c(c4)OCCO5)s3)cc2)CC1	> 25 µM	8.33 µM	> 15.5 µM	7 µM	8.88 µM	> 18.1 µM	13.2 µM	11.3 µM	9.27 µM	9.69 µM	4.08 µM	4.25 µM	2.27 µM	1.18 µM	3.52 µM	3.99 µM	5.18 µM	3.69 µM	2.27 µM	4.05 µM

Source: PubChem BioAssay (NCI)
